Measurements from ChEMBL document CHEMBL3864191 (ACS Med Chem Lett, 2016).
Active and inactive are the calls of the source. The rule behind the calls is not given here.

Legend:
cells [1] = conditions: Homo sapiens, MCF7, 72 h
Description: Cytotoxicity against human MCF7 cells assessed as reduction in cell viability after 72 hrs by MTT assay

[2] = Cytotoxicity against human DU145 cells assessed as reduction in cell viability after 72 hrs by MTT assay; assay type: functional, cell-based, DU-145; conditions: Homo sapiens, DU-145, 72 h
cells [3] = conditions: Homo sapiens, HCT-116, 72 h
Description: Cytotoxicity against human HCT116 cells assessed as reduction in cell viability after 72 hrs by MTT assay

NCI60 = assay: Cytotoxicity against human NCI60 cells assessed as cell growth inhibition up to 10 uM after 48 hrs by SRB assay; assay type: functional, cell-based
[4] = Cytotoxicity against mouse CT26 cells assessed as reduction in cell viability after 72 hrs by MTT assay; assay type: functional, cell-based; conditions: Mus musculus, CT26, 72 h
[5] = biological target: Induced myeloid leukemia cell differentiation protein Mcl-1 (Homo sapiens, UniProt Q07820); assay: Inhibition of FAM-Bid binding to human MCL1 expressed in Escherichia coli BL21 after 30 mins by fluorescence polarization assay
Chain of Induced myeloid leukemia cell differentiation protein Mcl-1 (Q07820 whole entry): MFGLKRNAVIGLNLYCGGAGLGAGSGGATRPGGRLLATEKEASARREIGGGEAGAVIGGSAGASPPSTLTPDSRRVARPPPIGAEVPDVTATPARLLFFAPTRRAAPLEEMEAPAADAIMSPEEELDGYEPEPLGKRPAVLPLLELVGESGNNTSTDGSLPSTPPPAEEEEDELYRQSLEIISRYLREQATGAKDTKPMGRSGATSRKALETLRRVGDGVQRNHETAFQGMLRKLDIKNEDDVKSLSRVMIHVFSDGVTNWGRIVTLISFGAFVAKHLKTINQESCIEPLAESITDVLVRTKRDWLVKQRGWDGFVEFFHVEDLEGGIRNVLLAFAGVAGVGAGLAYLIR

[6] = biological target: Apoptosis regulator Bcl-2 (Homo sapiens, UniProt P10415); assay: Inhibition of FAM-Bid binding to human BCL2 expressed in Escherichia coli BL21 after 30 mins by fluorescence polarization assay
Chain of Apoptosis regulator Bcl-2 (P10415 whole entry): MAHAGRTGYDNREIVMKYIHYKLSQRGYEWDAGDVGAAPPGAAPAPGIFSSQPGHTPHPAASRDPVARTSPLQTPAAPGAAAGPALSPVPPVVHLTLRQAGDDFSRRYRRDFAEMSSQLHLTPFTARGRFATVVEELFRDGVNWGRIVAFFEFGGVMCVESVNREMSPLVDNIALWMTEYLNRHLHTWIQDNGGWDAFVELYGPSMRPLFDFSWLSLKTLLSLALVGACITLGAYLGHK

[7] = Cytotoxicity against HEK293T cells assessed as reduction in cell viability at 0.33 to 100 uM after 72 hrs by MTT assay; assay type: toxicity, cell-based; conditions: human, hek-293t
[8] = Cytotoxicity against African green monkey Vero cells assessed as reduction in cell viability at 0.33 to 100 uM after 72 hrs by MTT assay; assay type: toxicity, cell-based; conditions: chlorocebus sabaeus
[9] = Cytotoxicity against human CNS cancer cells assessed as cell growth inhibition after 48 hrs by SRB assay; assay type: functional; conditions: Cancer cell lines
[10] = Cytotoxicity against human melanoma cells assessed as cell growth inhibition after 48 hrs by SRB assay; assay type: functional
[11] = Cytotoxicity against human colon cancer cells assessed as cell growth inhibition after 48 hrs by SRB assay; assay type: functional; conditions: Cancer cell lines
[12] = Cytotoxicity against human non-small cell lung cancer cells assessed as cell growth inhibition after 48 hrs by SRB assay; assay type: functional; conditions: Cancer cell lines
[13] = Cytotoxicity against human prostate cancer cells assessed as cell growth inhibition after 48 hrs by SRB assay; assay type: functional; conditions: Cancer cell lines
[14] = Cytotoxicity against human ovarian cancer cells assessed as cell growth inhibition after 48 hrs by SRB assay; assay type: functional; conditions: Cancer cell lines
[15] = Cytotoxicity against human leukemia cells assessed as cell growth inhibition after 48 hrs by SRB assay; assay type: functional
[16] = Cytotoxicity against human renal cancer cells assessed as cell growth inhibition after 48 hrs by SRB assay; assay type: functional; conditions: Cancer cell lines
[17] = Cytotoxicity against human breast cancer cells assessed as cell growth inhibition after 48 hrs by SRB assay; assay type: functional; conditions: Cancer cell lines

Row | IC50 (cells [1]) [µM] | IC50 (cells [3]) [µM] | Compound | IC50 [2] [µM] | growth inhibition (GI) (NCI60) | IC50 [4] [µM] | Activity [7] | Activity [8] | other results
1 | > 100 | > 100 | Cc1cc2c(c(O)c1-c1c(C)cc3c(c1O)/C(=C/NC(C)(C)C(C)(C)C)C(=O)C(O)=C3C(C)C)/C(=C/NC(C)(C)C(C)(C)C)C(=O)C(O)=C2C(C)C | > 100 | Active | 5.4 | – | – | –
2 | > 100 | 80.3 | Cc1cc2c(c(O)c1-c1c(C)cc3c(c1O)/C(=C/NC1CCCCC1)C(=O)C(O)=C3C(C)C)/C(=C/NC1CCCCC1)C(=O)C(O)=C2C(C)C | 20.7 | Active | 25.2 | – | – | –
3 | > 100 | > 100 | Cc1cc2c(c(O)c1-c1c(C)cc3c(c1O)/C(=C/NC(C)(C)C)C(=O)C(O)=C3C(C)C)/C(=C/NC(C)(C)C)C(=O)C(O)=C2C(C)C | 17.2 | Active | 12.8 | – | – | –
4 | > 100 | > 100 | Cc1cc2c(c(O)c1-c1c(C)cc3c(c1O)/C(=C/N[C@H]1C[C@@H]4C[C@H]([C@@H]1C)C4(C)C)C(=O)C(O)=C3C(C)C)/C(=C/N[C@H]1C[C@@H]3C[C@H]([C@@H]1C)C3(C)C)C(=O)C(O)=C2C(C)C | > 100 | – | > 100 | – | – | –
5 | > 100 | > 100 | Cc1cc2c(c(O)c1-c1c(C)cc3c(c1O)/C(=C/NC1CCC(C(C)(C)C)CC1)C(=O)C(O)=C3C(C)C)/C(=C/NC1CCC(C(C)(C)C)CC1)C(=O)C(O)=C2C(C)C (stereo unspecified) | > 100 | – | 21.7 | – | – | –
6 | > 100 | > 100 | Cc1cc2c(c(O)c1-c1c(C)cc3c(c1O)/C(=C/NC14CC5CC(CC(C5)C1)C4)C(=O)C(O)=C3C(C)C)/C(=C/NC13CC4CC(CC(C4)C1)C3)C(=O)C(O)=C2C(C)C | > 100 | – | > 100 | – | – | –
7 | 14.4 | 26.8 | Cc1cc2c(c(O)c1-c1c(C)cc3c(c1O)/C(=C/NCC(=O)O)C(=O)C(O)=C3C(C)C)/C(=C/NCC(=O)O)C(=O)C(O)=C2C(C)C | 34.8 | Active | 48.9 | Non-Toxic | Non-Toxic | IC50 [5]: 0.521 µM; Ki [5]: 0.121 µM; IC50 [6]: 0.573 µM; Ki [6]: 0.224 µM
8 | 77.3 | 77.1 | COC(=O)[C@@H](N/C=C1\C(=O)C(O)=C(C(C)C)c2cc(C)c(-c3c(C)cc4c(c3O)/C(=C/N[C@H](C(=O)OC)C(C)C)C(=O)C(O)=C4C(C)C)c(O)c21)C(C)C | 12.1 | – | 5.85 | – | – | –
9 | > 100 | > 100 | Cc1cc2c(c(O)c1-c1c(C)cc3c(c1O)/C(=C/Nc1ccc(C(C)(C)C)cc1)C(=O)C(O)=C3C(C)C)/C(=C/Nc1ccc(C(C)(C)C)cc1)C(=O)C(O)=C2C(C)C | > 100 | Active | 12.8 | – | – | –

Further lines, the molecule ahead of its results:

Row | Compound | IC50 (cells [1]) [µM] | IC50 (cells [3]) [µM] | IC50 [2] [µM] | growth inhibition (GI) (NCI60) | IC50 [4] [µM] | Activity [7] | Activity [8] | other results
10 | COC(=O)CCCN/C=C1\C(=O)C(O)=C(C(C)C)c2cc(C)c(-c3c(C)cc4c(c3O)/C(=C/NCCCC(=O)OC)C(=O)C(O)=C4C(C)C)c(O)c21 (stereo in doubt; (-)-16) | – | – | – | – | – | – | – | IC50 [5]: 0.937 µM; Ki [5]: 0.178 µM; IC50 [6]: 0.375 µM; Ki [6]: 0.131 µM
11 | COC(=O)CCN/C=C1\C(=O)C(O)=C(C(C)C)c2cc(C)c(-c3c(C)cc4c(c3O)/C(=C/NCCC(=O)OC)C(=O)C(O)=C4C(C)C)c(O)c21 | 5.64 | 5.24 | 9.47 | – | 4.25 | Non-Toxic | Non-Toxic | IC50 [5]: 2.96 µM; Ki [5]: 0.579 µM; IC50 [6]: 0.286 µM; Ki [6]: 0.09 µM
12 | Cc1cc2c(c(O)c1-c1c(C)cc3c(c1O)/C(=C/NCCS(=O)(=O)O)C(=O)C(O)=C3C(C)C)/C(=C/NCCS(=O)(=O)O)C(=O)C(O)=C2C(C)C | 15.9 | 48.9 | 28.9 | – | 3.19 | – | – | –
13 | Cc1cc2c(c(O)c1-c1c(C)cc3c(c1O)/C(=C/NCc1ccco1)C(=O)C(O)=C3C(C)C)/C(=C/NCc1ccco1)C(=O)C(O)=C2C(C)C | > 100 | 42.4 | 15.5 | Active | > 100 | – | – | –
14 | COC(=O)CCCCCCN/C=C1\C(=O)C(O)=C(C(C)C)c2cc(C)c(-c3c(C)cc4c(c3O)/C(=C/NCCCCCCC(=O)OC)C(=O)C(O)=C4C(C)C)c(O)c21 | 8.95 | 13.1 | 11.4 | Active | 5.59 | Non-Toxic | Non-Toxic | –
15 | Cc1cc2c(c(O)c1-c1c(C)cc3c(c1O)/C(=C/NCCCCC(=O)O)C(=O)C(O)=C3C(C)C)/C(=C/NCCCCC(=O)O)C(=O)C(O)=C2C(C)C | 15.9 | 22.2 | 20.7 | – | 4.46 | Non-Toxic | Non-Toxic | IC50 [5]: 0.478 µM; Ki [5]: 0.085 µM; IC50 [6]: 0.458 µM; Ki [6]: 0.171 µM
16 | Cc1cc2c(c(O)c1-c1c(C)cc3c(c1O)/C(=C/NCCC(=O)O)C(=O)C(O)=C3C(C)C)/C(=C/NCCC(=O)O)C(=O)C(O)=C2C(C)C | 19.4 | 21 | 21.6 | – | 67.3 | Non-Toxic | Non-Toxic | –
17 | Cc1cc2c(c(O)c1-c1c(C)cc3c(c1O)/C(=C/NCc1ccccc1)C(=O)C(O)=C3C(C)C)/C(=C/NCc1ccccc1)C(=O)C(O)=C2C(C)C | > 100 | 83.1 | 21.9 | Active | > 100 | – | – | –
18 | Cc1cc2c(c(O)c1-c1c(C)cc3c(c1O)/C(=C/NCCCCCC(=O)O)C(=O)C(O)=C3C(C)C)/C(=C/NCCCCCC(=O)O)C(=O)C(O)=C2C(C)C | 17.7 | 23.1 | 27.5 | – | 4.54 | Non-Toxic | Non-Toxic | –
19 | COC(=O)CN/C=C1\C(=O)C(O)=C(C(C)C)c2cc(C)c(-c3c(C)cc4c(c3O)/C(=C/NCC(=O)OC)C(=O)C(O)=C4C(C)C)c(O)c21 | – | – | – | Active | – | Non-Toxic | Non-Toxic | GI50 [9]: 1.63 µM; IC50 [5]: 1.43 µM; Ki [5]: 0.276 µM; GI50 [10]: 2.84 µM; GI50 [11]: 1.63 µM; GI50 [12]: 1.65 µM; GI50 [13]: 1.92 µM; GI50 [14]: 1.74 µM; GI50 [15]: 1.88 µM; IC50 [6]: 0.103 µM; Ki [6]: 0.005 µM; GI50 [16]: 2.19 µM; GI50 [17]: 2.44 µM
20 | Cc1cc2c(c(O)c1-c1c(C)cc3c(c1O)/C(=C/NCCCS(=O)(=O)O)C(=O)C(O)=C3C(C)C)/C(=C/NCCCS(=O)(=O)O)C(=O)C(O)=C2C(C)C | 17.7 | 43.1 | 36 | – | 35.6 | – | – | –
21 | COC(=O)CCCN/C=C1\C(=O)C(O)=C(C(C)C)c2cc(C)c(-c3c(C)cc4c(c3O)/C(=C/NCCCC(=O)OC)C(=O)C(O)=C4C(C)C)c(O)c21 (stereo in doubt; (+)-16) | – | – | – | – | – | – | – | IC50 [5]: 1.25 µM; Ki [5]: 0.24 µM; IC50 [6]: 0.452 µM; Ki [6]: 0.167 µM
22 | COC(=O)CCCN/C=C1\C(=O)C(O)=C(C(C)C)c2cc(C)c(-c3c(C)cc4c(c3O)/C(=C/NCCCC(=O)OC)C(=O)C(O)=C4C(C)C)c(O)c21 (stereo in doubt; 16) | – | – | – | Active | – | – | – | –
23 | COC(=O)[C@H](CCSC)N/C=C1\C(=O)C(O)=C(C(C)C)c2cc(C)c(-c3c(C)cc4c(c3O)/C(=C/N[C@@H](CCSC)C(=O)OC)C(=O)C(O)=C4C(C)C)c(O)c21 | > 100 | 0.52 | 17.7 | – | > 100 | – | – | –
24 | COC(=O)c1ccccc1N/C=C1\C(=O)C(O)=C(C(C)C)c2cc(C)c(-c3c(C)cc4c(c3O)/C(=C/Nc3ccccc3C(=O)OC)C(=O)C(O)=C4C(C)C)c(O)c21 | 24.7 | 37.3 | 20.9 | – | 21.4 | – | – | –
25 | Cc1cc2c(c(O)c1-c1c(C)cc3c(c1O)/C(=C/NCc1ccc4c(c1)OCO4)C(=O)C(O)=C3C(C)C)/C(=C/NCc1ccc3c(c1)OCO3)C(=O)C(O)=C2C(C)C | > 100 | 8.3 | 29.2 | – | > 100 | – | – | –
26 | Cc1cc2c(c(O)c1-c1c(C)cc3c(c1O)/C(=C/NCCCC(=O)O)C(=O)C(O)=C3C(C)C)/C(=C/NCCCC(=O)O)C(=O)C(O)=C2C(C)C | 20 | 32.3 | 18.1 | – | 28.8 | Non-Toxic | Non-Toxic | IC50 [5]: 0.661 µM; Ki [5]: 0.094 µM; IC50 [6]: 0.596 µM; Ki [6]: 0.235 µM
27 | COC(=O)CCCCCN/C=C1\C(=O)C(O)=C(C(C)C)c2cc(C)c(-c3c(C)cc4c(c3O)/C(=C/NCCCCCC(=O)OC)C(=O)C(O)=C4C(C)C)c(O)c21 | 11.5 | 0.64 | 8.56 | Active | 13.8 | Non-Toxic | Non-Toxic | GI50 [9]: 1.46 µM; IC50 [5]: 1.02 µM; Ki [5]: 0.195 µM; GI50 [10]: 2.35 µM; GI50 [11]: 1.44 µM; GI50 [12]: 1.51 µM; GI50 [13]: 1.41 µM; GI50 [14]: 2.65 µM; GI50 [15]: 1.03 µM; IC50 [6]: 0.84 µM; Ki [6]: 0.348 µM; GI50 [16]: 2.08 µM; GI50 [17]: 1.72 µM
